# Like-named read-outs stand apart in the source and are kept apart here.
# Legend:
# Uromyces appendiculatus = settings: 100 ppm, beans, preventive, evaluated 10 days after inoculation
# Venturia inaequalis = assay: Venturia test (apples)/preventive; settings: 100 ppm, preventive, evaluated 10 days after inoculation
# Protocol: Venturia Test (Apples)/Preventive
# (§1) Solvent: 24.5 parts by weight of acetone • 24.5 parts by weight of N,N-dimethylformamide
# (§2) Emulsifier: 1 part by weight of alkylaryl polyglycol ether
# After the spray coating has dried on, the plants are inoculated with an aqueous conidia suspension of the causal agent of apple scab (Venturia inaequalis) and then remain for 1 day in an incubation cabinet at approximately 20° C. and a relative atmospheric humidity of 100%.
# The plants are then placed in a greenhouse at approximately 21° C. and a relative atmospheric humidity of approximately 90%.
# The test is evaluated 10 days after the inoculation.
# Cochliobolus miyabeanus = assay: Cochliobolus test (rice)/protective; assay type: in vivo; settings: 250 ppm, protective, evaluated 4 days after inoculation
# [1] = test system: Fusarium nivale (var. majus); assay: Fusarium nivale (var. majus)-test (wheat)/preventive; settings: for Efficacy: preventive, evaluated 5 days after inoculation
# Protocol: Fusarium Nivale (Var. Majus)-Test (Wheat)/Preventive
# Solvent: 49 parts by weight of N,N-dimethylacetamide
# as §2
# After the spray coating has been dried, the plants are slightly injured by using a sandblast and afterwards they are sprayed with a conidia suspension of Fusarium nivale (var. majus).
# The plants are placed in the greenhouse under a translucent incubation cabinet at a temperature of approximately 10° C. and a relative atmospheric humidity of approximately 100%.
# The test is evaluated 5 days after the inoculation.
# Rhizoctonia solani = assay: Rhizoctonia test (rice)/protective; assay type: in vivo; settings: 250 ppm, protective, evaluated 4 days after inoculation
# Protocol: Rhizoctonia Test (Rice)/Protective
# Solvent: 28.5 parts by weight of acetone
# Emulsifier: 1.5 part by weight of alkylaryl polyglycol ether
# 1 day after the treatment, the plants are inoculated with hyphae of Rhizoctonia solani.
# Evaluation is carried out 4 days after the inoculation.
# [2] = logP by HPLC on reversed-phase column (EEC Directive 79/831 Annex V.A8); settings: HPLC on reversed-phase column (C 18), EEC Directive 79/831 Annex V.A8
# Pyrenophora teres = assay: Pyrenophora teres-test (barley)/preventive; assay type: in vivo; settings: 500 ppm, preventive, evaluated 8 days after inoculation
# Puccinia triticina = assay: Puccinia triticina-test (wheat)/preventive; assay type: in vivo; settings: 500 ppm, preventive, evaluated 8 days after inoculation
# Botrytis cinerea = assay: Botrytis test (beans)/preventive; settings: 100 ppm, preventive, lesion size 2 days after inoculation
# Protocol: Botrytis Test (Beans)/Preventive
# as §1, §2
# After the spray coating has dried on, 2 small pieces of agar covered with growth of Botrytis cinerea are placed on each leaf. The inoculated plants are placed in a darkened chamber at 20° C. and a relative atmospheric humidity of 100%.
# 2 days after the inoculation, the size of the lesions on the leaves is evaluated.
# Septoria tritici = assay: Septoria tritici-test (wheat)/preventive; assay type: in vivo; settings: 500 ppm, preventive, evaluated 21 days after inoculation
# Alternaria solani = assay: Alternaria test (tomato)/preventive; assay type: in vivo; settings: 500 ppm, preventive, evaluated 7 days after inoculation
# Sphaerotheca fuliginea = assay: Sphaerotheca test (cucumber)/preventive; assay type: in vivo; settings: 500 ppm, preventive, evaluated 7 days after inoculation
# Pyricularia oryzae = assay type: in vivo
SMILES,Efficacy (Uromyces appendiculatus) [%],Efficacy (Venturia inaequalis) [%],Efficacy (Cochliobolus miyabeanus) [%],Efficacy ([1]; 500 ppm) [%],Efficacy (Rhizoctonia solani) [%],logP [2],Efficacy (Pyrenophora teres) [%],Efficacy (Puccinia triticina) [%],Efficacy (Botrytis cinerea) [%],Efficacy (Septoria tritici) [%],Efficacy (Alternaria solani) [%],Efficacy (Sphaerotheca fuliginea) [%],Efficacy (Uromyces appendiculatus; listed as 105 from this invention) [%],"Efficacy (Pyricularia oryzae; 100 ppm, rice, protective, evaluated 5 days after inoculation) [%]","Efficacy (Pyricularia oryzae; 250 ppm, rice, protective, evaluated 5 days after inoculation) [%]","protection (Pyricularia oryzae; dose of 100 ppm and 250 ppm of active ingredient, rice)",Efficacy (Pyricularia oryzae; in vivo) [%],Efficacy ([1]; 250 ppm) [%],protection ([1]; dose of 250 ppm and 500 ppm of active ingredient)
Cn1nc(C(F)F)c(C(=O)Nc2ccc(F)cc2-c2ccc(Cl)c(F)c2)c1Cl [Example 98],100,100,93,86,100,3.74,100,100,100,,,,,,,,,,
Cn1nc(C(F)F)c(C(=O)Nc2ccc(F)cc2OCC(C)(C)C)c1F [Example 28],94,100,,,,4.08,71,100,,90,70,,,,,,,,
Cn1nc(C(F)F)c(C(=O)Nc2ccccc2OCc2ccc(Cl)cc2Cl)c1Cl [Example 163],,,,,,4.81,92,71,,71,,,,,,,,,
Cn1nc(C(F)F)c(C(=O)Nc2cccc(-c3ccc(Cl)cc3)c2)c1Cl [Example 208],,,,100,,4.04,100,100,,100,,,,,,,,,
CC(C)CC(C)c1ccccc1NC(=O)c1c(C(F)F)nn(C)c1F (centres unmarked) [Example 11],100,100,,,100,3.85,100,100,95,89,100,100,,,,,,,
Cn1nc(C(F)F)c(C(=O)Nc2ccccc2-c2cc(F)c(F)c(F)c2)c1Cl [Example 105],,100,95,100,100,3.52,100,100,100,,,,100,,,,,,
Cn1nc(C(F)F)c(C(=O)Nc2ccccc2-c2ccc(Br)c(Cl)c2)c1F [Example 152],100,100,,100,,3.83,100,100,100,,94,95,,,,,,,
Cn1nc(C(F)F)c(C(=O)Nc2ccccc2-c2ccc(Cl)c(F)c2)c1F [Example 100],99,99,,90,,3.45,100,100,99,100,80,100,,,,,,,
Cn1nc(C(F)F)c(C(=S)Nc2ccccc2-c2ccc(C(F)(F)F)c(F)c2)c1Cl [Example 151],,,,100,,4.06,100,100,,93,95,98,,,,,,,
CC(C)OCc1cccc(NC(=O)c2c(C(F)F)nn(C)c2F)c1 [Example 166],,,80,,,2.72,,,,,,,,,,,,,
Cn1nc(C(F)F)c(C(=O)Nc2ccccc2-c2ccc(Cl)cc2)c1F [Example 85],100,100,,100,,3.57,100,100,100,,95,98,,,,,,,
Cn1nc(C(F)F)c(C(=O)Nc2ccc(F)cc2-c2ccc(C(F)(F)F)c(F)c2)c1F [Example 150],98,100,,86,,3.66,100,100,100,,89,100,,,,,,,
Cn1nc(C(F)F)c(C(=S)Nc2ccccc2-c2cc(F)c(F)c(F)c2)c1F [Example 106],100,100,,,,3.65,100,100,,80,90,98,,,,,,,
Cn1nc(C(F)F)c(C(=O)Nc2ccccc2-c2ccc(C(F)(F)F)c(F)c2)c1F [Example 149],100,100,,93,,3.46,100,100,99,100,100,100,,,,,,,
COC(C)(C)CCc1ccccc1NC(=O)c1c(C(F)F)nn(C)c1F [Example 23],90,100,,,,2.74,71,100,,100,70,,,,,,,,
Cn1nc(C(F)F)c(C(=O)Nc2ccccc2-c2cccc(Cl)c2)c1F [Example 86],100,100,,71,,3.55,100,100,100,86,95,,,,,,,,
Cn1nc(C(F)F)c(C(=O)Nc2ccccc2-c2ccc(F)c(F)c2)c1F [Example 90],,,,,,3.20,100,100,,86,90,95,,,,,,,
"Cn1cc(C(=O)Nc2ccc(F)cc2-c2ccc(Cl)c(Cl)c2)c(C(F)F)n1 [11 from WO-2003/070705, N-(3′,4′-dichloro-5-fluorobiphenyl-2-yl)-3-(difluoromethyl)-1-methyl-1H-pyrazole-4-carboxamide, reference compound]",,,,,,,,,,,,,,20,80,poor (less than 20%) protection to good (at least 70%) protection,,,
CC(CC(C)(C)C)c1ccccc1NC(=O)c1c(C(F)F)nn(C)c1Cl (centres unmarked) [Example 22],100,100,,86,100,4.31,100,100,100,,,,,,,,80,,
Cn1nc(C(F)F)c(C(=O)Nc2ccc(F)cc2-c2ccc(C(F)(F)F)cc2)c1F [Example 118],95,100,,71,,3.60,100,100,100,86,100,100,,,,,,,
Cn1nc(C(F)F)c(C(=O)Nc2ccccc2CC[Si](C)(C)C)c1Cl [Example 24],100,100,,86,100,4.36,86,100,78,,,,,,,,98,,
Cn1nc(C(F)F)c(C(=O)Nc2ccccc2-c2ccc(Br)c(Cl)c2)c1Cl [Example 153],100,95,,93,,4.19,100,100,75,86,90,100,,,,,,,
CCCCCc1ccccc1NC(=O)c1c(C(F)F)nn(C)c1Cl [Example 12],100,100,,86,100,4.01,100,100,99,71,,,,,,,93,71,at least 70%
Cn1nc(C(F)F)c(C(=O)Nc2cccc3c2C2CCC3C2=C(Cl)Cl)c1Cl (centres unmarked) [Example 71],100,100,,94,,4.21,100,100,94,,80,100,,,,,,94,
Cn1nc(C(F)F)c(C(=O)Nc2cccc3c2C2CCC3C2=C(Cl)Cl)c1F (centres unmarked) [Example 72],100,100,,100,,3.99,100,94,100,,70,100,,,,,,100,

# Reference: US9375004B2 (Bayer Intellectual Property GmbH, priority 2010, dated 2016)
